Assay results as given in PMC8987054, “Structural basis for PoxtA-mediated resistance to phenicol and oxazolidinone antibiotics” (Nature Communications, 2022).
In brackets after ≈: the same amount, converted by molar mass. Like-named read-outs stand apart in the source and are kept apart here.

What was measured:
[1] = system: T1, E. faecium 9-F-6; assay: microbe, parasite or virus in culture; parameters: Broth microdilution MIC, EUENCF Sensititre plate, multidrug-resistant clinical isolate; conditions: Enterococcus faecium, 9F6, read-out: MIC BMD
T1 construct: 9-F-6 (ST872)
Excerpt: (§1) ST872 is a single locus variant of ST80 which is a pandemic hospital-adapted genetic lineage. […] The results (MICs) were interpreted according to EUCAST clinical breakpoints v.

[2] = system: T1, E. faecium 9-F-6; assay: microbe, parasite or virus in culture; parameters: Gradient test MIC (MIC Test Strip, Liofilchem), multidrug-resistant clinical isolate; conditions: Enterococcus faecium, 9F6, read-out: MIC GRAD
Excerpt: as §1

| SMILES | MIC [1] [µg/mL] | MIC [2] [µg/mL] |
| --- | --- | --- |
| C[C@@H](O)[C@H]1C(=O)N2C(C(=O)O)=C(SCCNC=N)C[C@H]12 [Imipenem] | > 16 | – |
| CNC(C)[C@@H]1CC[C@@H](N)[C@@H](O[C@H]2[C@H](O)[C@@H](O[C@H]3OC[C@](C)(O)[C@H](NC)[C@H]3O)[C@H](N)C[C@@H]2N)O1 (some centres unmarked) [Gentamicin] | > 256 | > 1020 |
| CCC[C@@H]1C[C@@H](C(=O)N[C@@H]([C@H]2O[C@H](SC)[C@H](O)[C@@H](O)[C@H]2O)[C@H](C)Cl)N(C)C1 [Clindamycin] | – | > 256 |
| CC1(C)S[C@@H]2[C@H](NC(=O)[C@H](N)c3ccc(O)cc3)C(=O)N2[C@H]1C(=O)O [Amoxicillin] | > 32 | – |
| C[C@H]1COc2c(N3CCN(C)CC3)c(F)cc3c(=O)c(C(=O)O)cn1c23 [Levofloxacin] | > 16 | – |
| CN[C@@H]1[C@H](O[C@H]2[C@H](O[C@H]3[C@H](O)[C@@H](O)[C@H](N=C(N)N)[C@@H](O)[C@@H]3N=C(N)N)O[C@@H](C)[C@]2(O)C=O)O[C@@H](CO)[C@H](O)[C@H]1O [Streptomycin] | > 1020 | – |
| CN(C)c1cc(NC(=O)CNC(C)(C)C)c(O)c2c1C[C@H]1C[C@H]3[C@H](N(C)C)C(O)=C(C(N)=O)C(=O)[C@@]3(O)C(O)=C1C2=O [Tigecycline] | 0.12 (≈ 0.205 µM) | – |
| CC1(C)S[C@@H]2[C@H](NC(=O)[C@H](N)c3ccccc3)C(=O)N2[C@H]1C(=O)O [Ampicillin] | > 32 | > 256 |
| CC(=O)NC[C@H]1CN(c2ccc(N3CCOCC3)c(F)c2)C(=O)O1 [Linezolid] | 8 (≈ 23.7 µM) | – |
| O=C(N[C@H](CO)[C@H](O)c1ccc([N+](=O)[O-])cc1)C(Cl)Cl [Chloramphenicol] | – | 16 (≈ 49.5 µM) |
| CN[C@H](CC(C)C)C(=O)N[C@H]1C(=O)N[C@@H](CC(N)=O)C(=O)N[C@H]2C(=O)N[C@H]3C(=O)N[C@H](C(=O)N[C@H](C(=O)O)c4cc(O)cc(O)c4-c4cc3ccc4O)[C@H](O)c3ccc(c(Cl)c3)Oc3cc2cc(c3O[C@@H]2O[C@H](CO)[C@@H](O)[C@H](O)[C@H]2O[C@H]2C[C@](C)(N)[C@H](O)[C@H](C)O2)Oc2ccc(cc2Cl)[C@H]1O [Vancomycin] | > 16 | > 256 |
